Assay results: article PMC9405123, “Design, Synthesis and Mechanistic Studies of Novel Isatin-Pyrazole Hydrazone Conjugates as Selective and Potent Bacterial MetAP Inhibitors” (Antibiotics, 2022)
≈ marks a conversion by molar mass, not a printed value. Like-named read-outs stand apart in the source and are kept apart here.

What was measured:
B. subtilis [1] = test: Growth inhibition screening (broth dilution); format: cell-based, Bacillus subtilis
Method: (§1) In vitro screening of the compounds (PS1–14) was performed to assess the antibacterial activity against three Gram-positive (Staphylococcus aureus, Enterococcus faecalis and Bacillus subtilis,) and three Gram-negative (Pseudomonas aeruginosa, Klebsiella pneumonia and Escherichia coli) bacterial strains using the standard NCCLS broth dilution assay. The study’s standard drugs were ciprofloxacin (CIP) and ampicillin (AMP). Compounds were dissolved in a polar solvent (DMSO) and distributed into a 96-well plate in 200 µL of nutrient broth medium, with a final concentration of the compounds […] in each well. The bacterial cells (about 2.5 × 10^5 cells/mL) were inoculated into each well and incubated at 37 °C overnight. After incubation, the growth was measured by turbidity of the culture at 590 nm by spectrophotometer.

B. subtilis [2] = test: Minimum bactericidal concentration; format: cell-based, Bacillus subtilis; conditions: for MBC: Bacillus subtilis
E. faecalis [3] = test: Growth inhibition screening (broth dilution); format: cell-based, Enterococcus faecalis; conditions: for inhibition at 250 µg/mL: Enterococcus faecalis
Method: as §1

E. coli [4] = test: Minimum bactericidal concentration; format: cell-based, Escherichia coli; conditions: for MBC: Escherichia coli
S. aureus [5] = test: Minimum bactericidal concentration; format: cell-based, Staphylococcus aureus; conditions: for MBC: Staphylococcus aureus
P. aeruginosa [6] = test: Growth inhibition screening (broth dilution); format: cell-based, Pseudomonas aeruginosa
Method: as §1

K. pneumoniae [7] = test: Minimum bactericidal concentration; format: cell-based, Klebsiella pneumonia; conditions: for MBC: Klebsiella pneumoniae
K. pneumoniae [8] = test: Minimum inhibitory concentration (broth dilution); format: cell-based, Klebsiella pneumonia; conditions: Klebsiella pneumoniae, alone, read-out: MIC
MtMetAP1c = biological target: T1, MtMetAP1c (Mycobacterium tuberculosis, UniProt P9WK19); test: MetAP enzyme inhibition, Morrison Ki (Met-AMC fluorescence); format: biochemical, M. tuberculosis; conditions: Morrison Ki method
T1 construct: made in house
Method: MetAP appears to serve a vital role in the co- or post-translational modification of proteins, making it essential for bacterial cell metabolism and survival. In this study, all enzymes, which were used for this study, including MtMetAP1c (M. tuberculosis), EfMetAP1a (E. faecalis), SpMetAP1a (S. pneumoniae) and HsMetAP1b (H. sapiens) enzymes, were expressed and purified in our lab as previously reported. All compounds prepared 10 mM stocks in DMSO and were used for enzyme inhibition studies. The concentration of each enzyme is adjusted such that they have similar reaction rates (HsMetAp1b, 1 µM; SpMetAP1a, 5 µM; EfMetAP1a, 1 µM; MtMetAP1c, 1 µM;) as reported earlier. All assays were performed in […] reaction containing 50 mM HEPES (pH 7.5 for SpMetAP1a and HsMetAP1b; 8.0 for EfMetAP1a, MtMetAP1c, […]), 150 mM NaCl, and CoCl2 (three molar equivalents of corresponding enzymes). The reaction was started by adding 50 μM L-Methionine 7-amido-4-methyl coumarin (Met-AMC) and continuously monitoring the fluorescence of released 7-amino-4-methyl coumarin (AMC) (380 nm excitation and 460 nm emission) in a microplate multimode reader (TECAN, Austria). The maximum percentage of inhibition against enzymes is calculated at […] compound concentration. […] The Ki values were determined according to the Morrison method using three different concentrations of substrates and ten different concentrations of the inhibitor. All experiments were performed in triplicate. GraphPad Prism version 8.0.0 (San Diego, CA, USA) was used to determine all the kinetic parameters.

E. faecalis [9] = test: Minimum inhibitory concentration (broth dilution); format: cell-based; conditions: Enterococcus faecalis, alone
P. aeruginosa [10] = test: Minimum inhibitory concentration (broth dilution); format: cell-based; conditions: Pseudomonas aeruginosa, alone
K. pneumoniae [11] = test: Growth inhibition screening (broth dilution); format: cell-based, Klebsiella pneumonia; conditions: for inhibition at 250 µg/mL: Klebsiella pneumoniae
Method: as §1

EfMetAP1a = EfMetAP1a (Enterococcus faecalis, UniProt Q832M5); test: MetAP enzyme inhibition, Morrison Ki (Met-AMC fluorescence); format: biochemical; conditions: Morrison Ki method
SpMetAP1a = SpMetAP1a (Streptococcus pneumoniae, UniProt Q8DPV1); test: as above; format: biochemical; conditions: Morrison Ki method
P. aeruginosa [12] = test: Minimum bactericidal concentration; format: cell-based, Pseudomonas aeruginosa; conditions: for MBC: Pseudomonas aeruginosa
S. aureus [13] = test: Growth inhibition screening (broth dilution); format: cell-based, Staphylococcus aureus; conditions: for inhibition at 250 µg/mL: Staphylococcus aureus
Method: as §1

E. faecalis [14] = test: Minimum bactericidal concentration; format: cell-based, Enterococcus faecalis; conditions: for MBC: Enterococcus faecalis
S. aureus [15] = test: Minimum inhibitory concentration (broth dilution); format: cell-based; conditions: Staphylococcus aureus, alone
E. coli [16] = test: Minimum inhibitory concentration (broth dilution); format: cell-based, Escherichia coli; conditions: Escherichia coli, alone, read-out: MIC
B. subtilis [17] = test: Minimum inhibitory concentration (broth dilution); format: cell-based; conditions: Bacillus subtilis, alone
E. coli [18] = test: Growth inhibition screening (broth dilution); format: cell-based, Escherichia coli
Method: as §1

HsMetAP1b = biological target: T2, HsMetAP1b (Homo sapiens, UniProt P53582); test: MetAP enzyme inhibition, Morrison Ki (Met-AMC fluorescence); format: biochemical, H. sapiens; conditions: Morrison Ki method
T2 construct: made in house

E. coli [19] = test: Combination study with AMP or CIP
K. pneumoniae [20] = test: Combination study with AMP or CIP
B. subtilis [21] = test: Combination study with AMP or CIP
E. faecalis [22] = test: Combination study with AMP or CIP
P. aeruginosa [23] = test: Combination study with AMP or CIP
S. aureus [24] = test: Combination study with AMP or CIP

Sequence of SpMetAP1a (Q8DPV1 entry or part of it): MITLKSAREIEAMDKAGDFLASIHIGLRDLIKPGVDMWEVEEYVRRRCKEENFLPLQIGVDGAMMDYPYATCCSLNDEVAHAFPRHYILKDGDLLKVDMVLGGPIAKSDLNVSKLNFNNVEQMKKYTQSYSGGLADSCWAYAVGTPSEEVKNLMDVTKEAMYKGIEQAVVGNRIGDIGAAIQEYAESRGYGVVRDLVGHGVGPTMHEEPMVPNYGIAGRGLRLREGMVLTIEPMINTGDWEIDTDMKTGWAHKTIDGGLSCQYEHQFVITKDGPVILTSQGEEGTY
Sequence of EfMetAP1a (Q832M5 entry or part of it): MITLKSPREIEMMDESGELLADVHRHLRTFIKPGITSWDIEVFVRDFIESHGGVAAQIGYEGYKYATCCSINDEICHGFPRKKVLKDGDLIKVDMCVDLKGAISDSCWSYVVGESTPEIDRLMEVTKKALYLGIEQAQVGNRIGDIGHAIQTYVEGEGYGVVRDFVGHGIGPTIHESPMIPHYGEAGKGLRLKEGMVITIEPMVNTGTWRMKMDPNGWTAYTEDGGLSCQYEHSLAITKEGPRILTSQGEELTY
T1 sequence (P9WK19 whole entry): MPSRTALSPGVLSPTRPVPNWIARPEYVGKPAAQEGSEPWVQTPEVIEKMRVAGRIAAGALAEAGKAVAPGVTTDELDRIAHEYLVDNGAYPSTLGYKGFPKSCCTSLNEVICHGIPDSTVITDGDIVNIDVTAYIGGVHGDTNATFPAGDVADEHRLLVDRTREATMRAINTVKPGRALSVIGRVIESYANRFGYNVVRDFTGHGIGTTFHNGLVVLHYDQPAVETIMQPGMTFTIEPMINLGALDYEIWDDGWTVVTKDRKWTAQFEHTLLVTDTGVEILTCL

## COc1ccc2c(c1)/C(=N\NC(=O)c1cc(-c3cccc(Br)c3)n[nH]1)C(=O)N2 [PS11, (E)-3-(3-Bromophenyl)-N′-(5-Methoxy-2-Oxoindolin-3-Ylidene)-1H-Pyrazole-5-Carbohydrazide]
other
  melting point: 245 to 248 °C
B. subtilis [1]; Bacillus subtilis
  inhibition at 250 µg/mL: ≥ 94%
B. subtilis [1]; listed as C00011
  % Growth Inhibition at 250 µg/mL: 100%
B. subtilis [2]
  MBC/MIC Ratio (R*): 2
  MBC: 512 µg/mL (≈ 1160 µM)
E. faecalis [3]
  inhibition at 250 µg/mL: ≥ 94%
E. faecalis [3]; listed as C00011
  % Growth Inhibition at 250 µg/mL: 100%
E. coli [4]
  MBC/MIC Ratio (R*): 2
  MBC: 256 µg/mL (≈ 581 µM)
S. aureus [5]
  MBC/MIC Ratio (R*): >4
  MBC: > 512 µg/mL
P. aeruginosa [6]; Pseudomonas aeruginosa
  inhibition at 250 µg/mL: ≥ 94%
P. aeruginosa [6]; listed as C00011
  % Growth Inhibition at 250 µg/mL: 96%
K. pneumoniae [7]
  MBC/MIC Ratio (R*): 1
  MBC: 32 µg/mL (≈ 72.7 µM)
K. pneumoniae [8]
  MIC: 32 µg/mL (≈ 72.7 µM)
MtMetAP1c
  Ki: 1.61 ± 0.25 µM
E. faecalis [9]
  MIC: 32 µg/mL (≈ 72.7 µM)
P. aeruginosa [10]
  MIC: 32 µg/mL (≈ 72.7 µM)
K. pneumoniae [11]
  inhibition at 250 µg/mL: ≥ 94%
K. pneumoniae [11]; listed as C00011
  % Growth Inhibition at 250 µg/mL: 95%
EfMetAP1a
  Ki: 2.49 ± 0.31 µM
SpMetAP1a
  Ki: 1.36 ± 0.17 µM
P. aeruginosa [12]
  MBC/MIC Ratio (R*): 4
  MBC: 128 µg/mL (≈ 291 µM)
S. aureus [13]
  inhibition at 250 µg/mL: ≥ 94%
S. aureus [13]; listed as C00011
  % Growth Inhibition at 250 µg/mL: 98%
E. faecalis [14]
  MBC/MIC Ratio (R*): 1
  MBC: 32 µg/mL (≈ 72.7 µM)
S. aureus [15]
  MIC: 128 µg/mL (≈ 291 µM)
E. coli [16]
  MIC: 128 µg/mL (≈ 291 µM)
B. subtilis [17]
  MIC: > 256 µg/mL
E. coli [18]; Escherichia coli
  inhibition at 250 µg/mL: ≥ 94%
E. coli [18]; listed as C00011
  % Growth Inhibition at 250 µg/mL: 97%
HsMetAP1b
  Ki: 15.2 ± 3.2 µM

## O=C1Nc2cc(Cl)c(F)cc2/C1=N\NC(=O)c1cc(-c2cccc(Br)c2)n[nH]1 [PS6, (E)-3-(3-Bromophenyl)-N′-(6-Chloro-5-Fluoro-2-Oxoindolin-3-Ylidene)-1H-Pyrazole-5-Carbohydrazide]
other
  melting point: 191 to 194 °C
B. subtilis [1]
  % Growth Inhibition at 250 µg/mL: more than 70%
B. subtilis [1]; listed as C00006
  % Growth Inhibition at 250 µg/mL: 100%
B. subtilis [2]
  MBC/MIC Ratio (R*): 2
  MBC: 16 µg/mL (≈ 34.6 µM)
E. faecalis [3]
  inhibition at 250 µg/mL: > 70%
E. faecalis [3]; listed as C00006
  % Growth Inhibition at 250 µg/mL: 73%
E. coli [4]
  MBC/MIC Ratio (R*): 8
  MBC: 256 µg/mL (≈ 553 µM)
E. coli [19]; combination PS6 + AMP
  MIC in Combination: 4 µg/mL
E. coli [19]; combination PS6 + CIP
  MIC in Combination: 8 µg/mL
E. coli [19]; combination with AMP
  FICI: 0.25
E. coli [19]; combination with CIP
  FICI: 0.31
S. aureus [5]
  MBC/MIC Ratio (R*): 32
  MBC: 512 µg/mL (≈ 1110 µM)
P. aeruginosa [6]
  % Growth Inhibition at 250 µg/mL: more than 70%
P. aeruginosa [6]; listed as C00006
  % Growth Inhibition at 250 µg/mL: 100%
K. pneumoniae [20]; combination PS6 + AMP
  MIC in Combination: 4 µg/mL
K. pneumoniae [20]; combination PS6 + CIP
  MIC in Combination: 8 µg/mL
K. pneumoniae [20]; combination with AMP
  FICI: 0.18
K. pneumoniae [20]; combination with CIP
  FICI: 0.62
  Mode of Interaction: Indifferent (in between 0.5 and 4)
K. pneumoniae [7]
  MBC/MIC Ratio (R*): 2
  MBC: 128 µg/mL (≈ 277 µM)
K. pneumoniae [8]
  MIC: 64 µg/mL (≈ 138 µM)
MtMetAP1c
  Ki: 0.74 ± 0.06 µM
E. faecalis [9]
  MIC: 16 µg/mL (≈ 34.6 µM)
P. aeruginosa [10]
  MIC: 32 µg/mL (≈ 69.2 µM)
K. pneumoniae [11]
  inhibition at 250 µg/mL: > 70%
K. pneumoniae [11]; listed as C00006
  % Growth Inhibition at 250 µg/mL: 80%
EfMetAP1a
  Ki: 1.65 ± 0.31 µM
SpMetAP1a
  Ki: 2.55 ± 0.11 µM
P. aeruginosa [12]
  MBC/MIC Ratio (R*): 8
  MBC: 256 µg/mL (≈ 553 µM)
B. subtilis [21]; combination PS6 + AMP
  MIC in Combination: 2 µg/mL
B. subtilis [21]; combination PS6 + CIP
  MIC in Combination: 8 µg/mL
B. subtilis [21]; combination with AMP
  FICI: 0.75
B. subtilis [21]; combination with CIP
  FICI: 1.06
  Mode of Interaction: Indifferent (in between 0.5 and 4)
S. aureus [13]
  inhibition at 250 µg/mL: 61%
E. faecalis [14]
  MBC/MIC Ratio (R*): 2
  MBC: 32 µg/mL (≈ 69.2 µM)
S. aureus [15]
  MIC: 16 µg/mL (≈ 34.6 µM)
E. faecalis [22]; combination PS6 + AMP
  MIC in Combination: 1 µg/mL
E. faecalis [22]; combination PS6 + CIP
  MIC in Combination: 4 µg/mL
E. faecalis [22]; combination with AMP
  FICI: 0.09
E. faecalis [22]; combination with CIP
  FICI: 0.31
P. aeruginosa [23]; combination PS6 + AMP
  MIC in Combination: 4 µg/mL
P. aeruginosa [23]; combination PS6 + CIP
  MIC in Combination: 4 µg/mL
P. aeruginosa [23]; combination with AMP
  FICI: 0.25
P. aeruginosa [23]; combination with CIP
  FICI: 0.25
  Mode of Interaction: Synergistic (FICI value is less than or equal to 0.5)
S. aureus [24]; combination PS6 + AMP
  MIC in Combination: 1 µg/mL
S. aureus [24]; combination PS6 + CIP
  MIC in Combination: 8 µg/mL
S. aureus [24]; combination with AMP
  FICI: 0.31
S. aureus [24]; combination with CIP
  FICI: 1
  Mode of Interaction: Indifferent (in between 0.5 and 4)
E. coli [16]
  MIC: 32 µg/mL (≈ 69.2 µM)
B. subtilis [17]
  MIC: 8 µg/mL (≈ 17.3 µM)
E. coli [18]
  % Growth Inhibition at 250 µg/mL: more than 70%
E. coli [18]; listed as C00006
  % Growth Inhibition at 250 µg/mL: 97%
HsMetAP1b
  Ki: 172 ± 4.8 µM
